Results from patent US10011587B2, “Multivalent ligands targeting VEGFR” (THE METHODIST HOSPITAL SYSTEM, priority 2014, dated 2018).

Tests used:
[1] = system: MDA-MB-231, HCT-116, U-87-MG; assay: In vitro cell viability (MTT), cancer cell lines; type: cell-based, human
Protocol: (§1) MDA-MB-231 and U-87-MG cell lines were cultured in DMEM medium (Gibco, Grand Island, N.Y.) containing 10% fetal bovine serum (FBS) and 1% penicillin streptomycin at 37° C. in a humidified atmosphere of 5% CO2 in air. HCT 116 (human, colorectal carcinoma cell line) was grown in McCoy's 5a medium modified with 10% FBS. HUVECs (Human Umbilical Vein Endothelial cells) were grown in EGM medium (Lonza), supplemented with 20% FBS, 100 U/mL penicillin, 100 μg/mL streptomycin at 37° C. under a humidified atmosphere of 5% CO2 and 95% O2 with same condition as above. For the cell viability assay, the cells were then seeded into 96-well flat-bottomed tissue-culture plates at 1×10^4 cells/well and incubated for 24 or 72 h in humidified atmosphere of 5% (v/v) CO2 at 37° C. in the presence of each compound. For HUVECs, the flat-bottomed 96-well plate (Corning, N.Y., USA) was coated 1 h at 37° C. with gelatin (0.3% in PBS, pH 7.4) and then washed with PBS. The cells were then treated with ZD6474 monomer and its dimer compounds in the range from 5 nM to 100 μM concentration mixed with 1% FBS added culture medium (HUVECs was 2% FBS added). Following 24 and 72 h of incubation under 5% CO2 at 37° C., the cells were washed with PBS and cell viability was assessed by MTT colorimetric assay. The absorbance of individual wells was measured by using an automated microplate reader (570 nm; VERSAmax, Molecular Devices Corp., Sunnyvale, Calif.). The data are expressed as the percentage of viable cells compared to the survival of a control group and were presented as mean±s.e. (n=6).

HUVECs [2] = assay: In vitro cell viability (MTT), HUVECs; type: cell-based, human
Protocol: as §1, with “The cells were then treated with ZD6474 monomer and its dimer compounds in the range from 5 nM to 100 μM concentration mixed with 1% FBS added culture medium (HUVECs was 2% FBS added).” left out, “(n=6).” left out

HUVECs [3] = assay: In vitro tubular formation on Matrigel; type: cell-based, human; details: 10 μM, 6 h
Protocol: Growth factor reduced Matrigel (100 μL, BD Bioscience, San Jose, Calif., USA) was added to each well of a 96-well plate and allowed to polymerize for 30 min at 37° C. HUVECs were suspended in the medium at the density of 4×10^5 cells per milliliter, and 0.1 mL of the cell suspension was added to each well coated with Matrigel in the presence of ZD6474 monomer or ZD6474 dimer Cells were incubated at 37° C. for 6 h, and then photographed. The branch points were counted and averaged.

[4] = system: VEGF165-induced angiogenesis; assay: In vivo Matrigel plug assay; design: species or system nu/nu nude mice; details: VEGF165 500 ng/mL, compound 100 μM, 10 days
Protocol: The matrigel plug assays were performed injecting 637 μL of growth factor reduced liquid Matrigel-PBS mixture was into subcutaneously into the flanks of nu/nu nude mice at 4° C. Once inside the animals, the liquid Matrigel-PBS mixture solidifies. For comparison, Matrigel alone as well as Matrigel containing VEGF165 (Peprotech, Rocky Hill, N.J.) at a final concentration of 500 ng/mL to stimulate angiogenesis, and Matrigel with VEGF165 along with either ZD6474 monomer, ZD6474 dimer at a final concentration of 100 μM were used. All of the injection groups consisted of three mice. After 10 days, the mice were sacrificed and the Matrigel plugs were removed, fixed in 4% formalin and photographed.

[5] = In vitro cell viability (MTT), cancer cell lines; type: cell-based, human; details: human, MDA-MB-231, HCT-116 and U-87-MG cancer cells; 100 μM, cancer cell lines, 72 h; read-out: cells remaining viable
Protocol: as §1

VEGFR2 = target: T1, VEGFR2 (Homo sapiens, UniProt P35968); assay: Cell VEGFR2 receptor-binding assay, displacement/competition; details: read-out: 50% inhibitory concentration (IC50)
T1 construct: evaluated by saturation and displacement assays using U87 cells; endogenous in cells; host or cells: U87 (U87MG) human glioblastoma cells
Protocol: Cells were seeded in 12 well plates at concentration of 5×10^5 cells per well the day before the experiment. […] The cells were then washed with cold PBS and trypsinized. The cell-associated radioactivity was measured using γ-counter (Perkin-Elmer, CT) and the Kd values were calculated by fitting the data by nonlinear regression using GraphPad Prism (GraphPad Software, CA). […] The experiment procedures are similar with those used for the saturation study described above. All experiments were carried out with triplicate samples.

VEGFR = target: T2, VEGFR (Homo sapiens, UniProt P35968); assay: VEGFR cell receptor-binding assay, competition against 64Cu-DOTA-ZD-G2; details: U-87 MG cells, 1 uCi 64Cu-DOTA-ZD-G2 per well, 4° C., 1 hour
T2 construct: endogenous in cells; host or cells: U-87 MG human glioblastoma cells
Protocol: Cells were seeded in 12-well plates at a density about 5×10^5 cells per well the day before the experiment. […] The HPLC purified radio-tracer was re-dissolved in FBS-free DMEM medium and diluted to 1 uCi/100 uL. […] After incubation at 4° C. for 1 hour, the supernatant with free radio tracer was removed carefully and the cells were then washed with cold PBS for three times and trypsinized. The cells were collected and cell pellet associated radioactivity was measured and the binding affinity values (IC50) were calculated by nonlinear regression using GraphPad Prism (GraphPad Software, CA). All experiments were carried out in triplicate.

[6] = system: U87-MG human glioblastoma xenograft; assay: Ex vivo tumor accumulation and biodistribution fluorescence imaging; type: in vivo, nu/nu female mice
Protocol: The subcutaneous dorsa of five nu/nu female mice (6 weeks old; 20 g) were inoculated bilaterally with 1×10^7 U87-MG human glioblastoma cells overexpressing the VEGF receptor. Once the tumor diameter was approximately 7-8 mm at 21 days post implant, the mice were divided into three groups for the following injections: (a) free FAM (n=1), (b) FAM-labeled ZD6474-monomer (50 μM; n=2), and (c) FAM-labeled ZD6474-dimer (50 μM, n=2). The animals were manually restrained during intravenous tail injection. All tail vein injections were carried out with a 31 gauge needle placed in a lateral tail vein to inject 100 μL of solution. Twenty-four hours post injection, fluorescence images were acquired using a one second exposure time. The tumors and major organs were dissected and imaged again. […] In vivo fluorescence imaging was performed using the Xenogen IVIS 200 imaging system. To better observe the signal without losses and background due to intervening tissue, fluorescence images were collected ex vivo. Raw counts for each organ were measured using the Xenogen software by drawing oval regions of interest (ROI) around the organ of interest. […] An estimate of the percentage of injected dose accumulated in the tumors was established by comparing measured counts/volume of tissue with the measured counts/volume of a known concentration of the same compound in water at the same exposure. […]

VEGF receptor on HUVECs = assay: Blocking assay of FAM-conjugated compounds; type: cell-based, human; details: HUVEC
Protocol: Specific binding of ZD6474-monomer and dimer were tested with blocking studies. Unlabeled ZD6474-monomer and ZD6474-dimer were mixed with the corresponding FAM-conjugated compounds simultaneously for 3 h. Plates were then imaged using the Xenogen IVIS-200 system. Similarly treated cells were fixed in 4% paraformaldehyde and imaged under fluorescent microscopy after staining the nuclei with DAPI.

[7] = system: MDA-MB-231 cells and HUVEC; assay: In vitro cellular uptake of FAM-conjugated compounds; type: cell-based, human; details: 3 h, 100 nM dose
Protocol: Each of the FAM-conjugated compounds was incubated with MDA-MB-231 cells seeded 24 h earlier in a 96 well plate with 1% serum medium. Serial dilutions of the compounds were incubated for 3 h. The treated medium was then exchanged for fresh serum free medium. The remaining compound was then quantified from images taken using a Xenogen IVIS-200 (PerkinElmer, Inc. San Jose, Calif.) fluorescent imaging system. The same was done with HUVEC.

T2 sequence (P35968 20-1356): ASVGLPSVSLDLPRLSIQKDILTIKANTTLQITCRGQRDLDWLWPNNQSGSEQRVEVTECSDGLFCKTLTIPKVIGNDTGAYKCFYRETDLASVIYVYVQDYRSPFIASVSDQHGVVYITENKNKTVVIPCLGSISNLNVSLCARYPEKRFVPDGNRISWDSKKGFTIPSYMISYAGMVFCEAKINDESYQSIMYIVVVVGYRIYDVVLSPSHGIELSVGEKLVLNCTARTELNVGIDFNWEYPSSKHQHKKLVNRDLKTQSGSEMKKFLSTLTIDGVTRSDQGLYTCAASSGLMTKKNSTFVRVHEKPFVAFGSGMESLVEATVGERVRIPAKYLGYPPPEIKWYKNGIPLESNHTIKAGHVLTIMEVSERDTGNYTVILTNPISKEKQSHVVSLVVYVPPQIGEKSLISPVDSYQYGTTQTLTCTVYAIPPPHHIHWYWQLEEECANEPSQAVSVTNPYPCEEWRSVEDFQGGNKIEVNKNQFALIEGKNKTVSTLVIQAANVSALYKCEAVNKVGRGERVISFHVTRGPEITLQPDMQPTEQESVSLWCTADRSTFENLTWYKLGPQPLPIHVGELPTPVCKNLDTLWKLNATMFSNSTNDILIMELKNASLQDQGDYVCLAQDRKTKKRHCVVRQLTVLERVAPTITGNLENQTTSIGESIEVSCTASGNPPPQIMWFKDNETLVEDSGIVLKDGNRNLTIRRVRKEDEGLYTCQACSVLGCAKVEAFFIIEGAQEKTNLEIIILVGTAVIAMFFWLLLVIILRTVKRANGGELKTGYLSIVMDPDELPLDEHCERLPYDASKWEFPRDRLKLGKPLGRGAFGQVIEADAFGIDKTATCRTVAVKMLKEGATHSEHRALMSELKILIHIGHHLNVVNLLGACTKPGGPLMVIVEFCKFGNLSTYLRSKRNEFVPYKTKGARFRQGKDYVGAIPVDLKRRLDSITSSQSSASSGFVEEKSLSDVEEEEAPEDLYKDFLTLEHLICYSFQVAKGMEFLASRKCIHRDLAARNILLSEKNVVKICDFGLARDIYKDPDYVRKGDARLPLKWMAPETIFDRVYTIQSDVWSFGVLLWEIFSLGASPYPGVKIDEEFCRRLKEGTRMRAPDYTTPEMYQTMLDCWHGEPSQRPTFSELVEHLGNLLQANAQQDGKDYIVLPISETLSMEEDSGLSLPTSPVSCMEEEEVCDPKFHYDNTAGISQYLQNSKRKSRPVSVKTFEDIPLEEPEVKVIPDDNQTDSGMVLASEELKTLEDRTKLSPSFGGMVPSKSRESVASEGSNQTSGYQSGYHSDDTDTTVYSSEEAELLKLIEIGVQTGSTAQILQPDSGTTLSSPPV
T1 sequence (P35968 20-1356): as above

## COc1cc2c(Nc3ccc(Br)cc3F)ncnc2cc1OCC1CCN(C(=O)CCCCCC(N)C(=O)N2CCC(COc3cc4ncnc(Nc5ccc(Br)cc5F)c4cc3OC)CC2)CC1 (stereo not shown) [ZD6474-dimer]
[1]; 5 nM to 50 μM
  toxicity to the cancer cells: low toxicity
[1]; 100 μM, cancer cell lines, 72 h
  cells remaining viable: around 50%
HUVECs [2]
  concentration at which cell viability begins to be affected: 500 nM
HUVECs [3]
  number of tube branches (control group 100%): 75±5.2%
[4]
  appearance of Matrigel plugs (blood vessel formation): almost the same as the PBS treated negative control group

## COc1cc2c(Nc3ccc(Br)cc3F)ncnc2cc1OCC1CCN(C)CC1 [ZD-G1, vandetanib, reference compound]
[5]
  viability at 72 h, 100 µM: ~50%
HUVECs [2]
  concentration at which cell viability begins to be affected: 500 nM
HUVECs [3]
  number of tube branches (control group 100%): 52.0±4.8%

## COc1cc2c(Nc3ccc(Br)cc3F)ncnc2cc1OCC1CCN(C(=O)OCCN(CCOC(=O)NCCN)CCOC(=O)N2CCC(COc3cc4ncnc(Nc5ccc(Br)cc5F)c4cc3OC)CC2)CC1 [ZD-G2]
VEGFR2
  IC50: 0.023 ± 0.002 nM
VEGFR
  IC50: 0.026 nM

## COc1cc2c(Nc3ccc(Br)cc3F)ncnc2cc1OCC1CCN(C(=O)CCCCCC(NC(=O)c2ccc(C(=O)O)c(-c3c4ccc(=O)cc-4oc4cc(O)ccc34)c2)C(=O)N2CCC(COc3cc4ncnc(Nc5ccc(Br)cc5F)c4cc3OC)CC2)CC1 (stereo not shown) [dimer-FAM]
[6]; 24 h after i.v. injection, estimate against known dye concentrations
  total injected dose ending up in the tumors: at least 6%
[6]; ex vivo, 24 h following i.v. injection
  fluorescent intensity of tumors relative to tumors in other groups and organs: about 20 ×
VEGF receptor on HUVECs; 100 μM ZD6474-dimer
  blocking of fluorescence (cellular uptake images): Complete blocking of fluorescence
VEGF receptor on HUVECs; 100× unlabeled ZD6474-dimer, 3 h
  loss of FAM signal when mixed with unlabeled dimer: ~90%
[7]
  uptake in HUVECs compared with MDA-MB-231 cells: overall higher uptake of dimer-FAM by HUVECs

## COc1cc2c(Nc3ccc(Br)cc3F)ncnc2cc1OCC1CCN(C(=O)c2ccc(C(=O)O)c(-c3c4ccc(=O)cc-4oc4cc(O)ccc34)c2)CC1 [monomer-FAM]
VEGF receptor on HUVECs; 100× unlabeled compound, 10 μM dose
  mean blocked signal relative to blocked dimer FAM: over 10 ×
